The results in this text go back to BindingDB's records for patent US20260001888 (Merck Sharp & Dohme, 2026).

The structures appear in SMILES notation.

Sequence of High affinity cGMP-specific 3',5'-cyclic phosphodiesterase 9A (O76083 whole entry): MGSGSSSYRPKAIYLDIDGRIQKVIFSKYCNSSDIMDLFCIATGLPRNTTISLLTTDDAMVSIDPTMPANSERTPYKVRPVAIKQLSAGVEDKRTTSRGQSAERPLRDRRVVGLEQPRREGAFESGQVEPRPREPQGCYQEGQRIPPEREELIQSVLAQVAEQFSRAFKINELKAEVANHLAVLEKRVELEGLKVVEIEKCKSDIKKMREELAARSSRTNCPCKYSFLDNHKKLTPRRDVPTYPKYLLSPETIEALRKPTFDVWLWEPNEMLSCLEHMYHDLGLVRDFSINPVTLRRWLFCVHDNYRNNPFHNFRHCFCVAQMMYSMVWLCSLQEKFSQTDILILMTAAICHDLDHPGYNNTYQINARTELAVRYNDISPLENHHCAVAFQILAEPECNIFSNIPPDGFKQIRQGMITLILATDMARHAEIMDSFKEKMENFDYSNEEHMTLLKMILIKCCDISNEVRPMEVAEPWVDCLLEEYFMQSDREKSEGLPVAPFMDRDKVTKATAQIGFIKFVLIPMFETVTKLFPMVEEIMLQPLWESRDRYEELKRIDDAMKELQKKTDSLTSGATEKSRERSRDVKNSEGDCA

The assay has as its target High affinity cGMP-specific 3',5'-cyclic phosphodiesterase 9A (Homo sapiens, UniProt O76083). Briefly: PDE9 Inhibitory Activity Assay. Here is the method: Human PDE9 (PDE9A2, GenBank Accession No. NM_001001567), full length with N-terminal GST tag, was purchased from BPS Bioscience. The fluorescence polarization assay for cyclic nucleotide phosphodiesterases was performed using an IMAP FP kit supplied by Molecular Devices, Sunnyvale, CA (product #R8139). IMAP technology has been applied previously to phosphodiesterase assays (Huang, W., et al., J. Biomol Screen, 2002, 7:215). Assays were performed at room temperature in 384-well microtiter plates with an incubation volume of 20.2 μL. Solutions of test compounds were prepared in DMSO and serially diluted with DMSO to yield 8 μL of each of 10 solutions differing by 3-fold in concentration, at 32 serial dilutions per plate. 100% inhibition is determined using a known PDE9 inhibitor, such as 1-(2-chlorophenyl)-6-[(2R)-3,3,3-trifluoro-2-methylpropyl]-1,5-dihydro-4H-pyrazolo[3,4-d]pyrimidine-4-one (BAY 73-6691) (Wunder et al, Mol. Pharmacol., 2005, 68 (6): 1775-81), (6-[(3S,4S)-4-methyl-1-(pyrimidin-2-ylmethyl) pyrrolidin-3-yl]-1-(tetrahydro-2H-pyran-4-yl)-1,5-dihydro-4H-pyrazolo[3,4-d]pyrimidin-4-one (PF-04447943) (Wager et al., ACS Chemical Neuroscience, 2010, 1:435-449). 0% of inhibition is determined by using DMSO (1% final concentrations). A Labcyte Echo 555 (Labcyte, Sunnyvale, CA) is used to dispense 200 nL from each well of the titration plate to the 384 well assay plate. Human PDE9A2 membrane preps were diluted to 1 ng/ml. […] PDE9 enzyme mix and compounds were mixed and incubated at room temperature for 30 min. Following which, FAMcGMP substrate was added, shaken and incubated for an additional 60 min at room temperature. The final concentration of human PDE9 membrane preparations were 0.5 ng/ml. The final concentration of FAM-cGMP was 50 nM. After the incubation period, the enzymatic reaction was stopped by addition of binding solution (IMAP-FP, Molecular Devices, comprised of 80% Solution A, 20% Solution B and a 1:600 dilution of binding reagent) to each well. The plates were shaken then incubated at room temperature for 1 h prior to determining the fluorescence polarization (mP) using a Perkin Elmer En Vision™ plate reader (Waltham, MA).
Take `CCC(c1ncc(OC(F)(F)F)cn1)N(C)c1nc2c(c(C#N)nn2C(C)c2ccc(C(F)(F)F)nc2)c(=O)[nH]1` (single isomer, unassigned; form 1) [US20260001888, Example 59]: the affinity corresponds to a Ki of 12.1 nM. Molecule `CCC(c1ncc(OC(F)(F)F)cn1)N(C)c1nc2c(c(C#N)nn2C(C)c2ccc(C(F)(F)F)nc2)c(=O)[nH]1` (single isomer, unassigned; form 2) [US20260001888, Example 60] displayed a Ki of 1.06 nM. In the case of `CCC(c1ncc(OC(F)(F)F)cn1)N(C)c1nc2c(c(C#N)nn2C(C)c2ccc(C(F)(F)F)nc2)c(=O)[nH]1` (single isomer, unassigned; form 3) [US20260001888, Example 61] it was 0.17 nM; in that of `CCC(c1ncc(OC(F)(F)F)cn1)N(C)c1nc2c(c(C#N)nn2C(C)c2ccc(C(F)(F)F)nc2)c(=O)[nH]1` (single isomer, unassigned; form 4) [US20260001888, Example 62], 50.7 nM.
